From patent publication US9193898B2, “Environmentally friendly dispersion system used in the preparation of inverse emulsion polymers” (priority 2011, dated 2015)

Assays:
[1] = tested on: most sensitive marine species (typically Skeletonema); experiment: Toxicity to the most sensitive marine species (EC50); conditions: environmental profile of dispersion system components
Source text: (§1) With this in mind, it was desired to create an environmentally friendly oil phase system useful for making inverse emulsion polymers. The adopted definition of environmentally friendly are the rules that govern offshore chemical use in the North Sea. The environmental impact of a chemical is defined by three tests: bioaccumulation, biodegradation and toxicity. In order for a chemical to be used without restriction offshore in the North Sea it must satisfy two of the following three criteria: • 1. Biodegradation must be greater than 60%, if less than 20% it is automatically marked for substitution. • 2. Bioaccumulation as measured by octanol/water partitioning coefficient (log Po/w) must be below 3 (or have a molecular weight>700). • 3. Toxicity to the most sensitive marine species (typically Skeletonema) must be greater than LC50 or EC50 of 10 ppm.

[2] = Bioaccumulation as octanol/water partitioning coefficient (log Po/w); assay type: physicochemical
Source text: as §1

[3] = Source text: as §1, with “ppm. […]” for “ppm.”
An embodiment of the present invention is an environmentally friendly oil phase system comprising an organic solvent and lecithin. The immiscible organic solvent can be a hydrocarbon solvent that is aliphatic or at least one oil derived from one or more natural products, and are at least 60% biodegradable after 28 days as determined by the Organization for Economic Cooperation and Development, Procedure OECD 306, its text incorporated by reference. […]

[4] = cited from earlier work

Substance | Toxicity EC50 [1] [ppm] | Bioaccumulation log Po/w [2] | Biodegradation, t = 28 days [3] | log P [4]
POE(4)-sorbitan monostearate | 165 | <3 | 27 | 
POE(5)-sorbitan monooleate | 20 | <3 | 52 | 
sorbitan monooleate |  |  |  | > 3
